For the test, the target named is T1, JAK3 (JH1 and JH2 domain) (Homo sapiens, UniProt P52333).
T1 sequence (P52333 521-1111 limits assumed): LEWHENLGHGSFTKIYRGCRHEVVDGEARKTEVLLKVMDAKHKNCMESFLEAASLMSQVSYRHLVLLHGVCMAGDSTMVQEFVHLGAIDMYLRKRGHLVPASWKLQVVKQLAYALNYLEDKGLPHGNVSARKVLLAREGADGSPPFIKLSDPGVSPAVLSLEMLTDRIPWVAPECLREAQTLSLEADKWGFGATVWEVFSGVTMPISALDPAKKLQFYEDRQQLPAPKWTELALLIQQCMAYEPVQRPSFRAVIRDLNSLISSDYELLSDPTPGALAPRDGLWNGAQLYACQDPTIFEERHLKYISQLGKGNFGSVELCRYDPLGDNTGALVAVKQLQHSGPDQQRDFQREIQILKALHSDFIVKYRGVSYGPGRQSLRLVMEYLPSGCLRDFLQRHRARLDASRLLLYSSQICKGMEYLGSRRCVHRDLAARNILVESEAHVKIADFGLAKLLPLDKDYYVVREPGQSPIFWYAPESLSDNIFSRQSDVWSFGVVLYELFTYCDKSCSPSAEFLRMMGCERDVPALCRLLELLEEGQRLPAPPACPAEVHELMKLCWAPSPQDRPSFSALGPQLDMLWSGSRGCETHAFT
Nature of the test: JAK3 Kinase Assay (ELISA of peptide substrate phosphorylation). The conditions noted are these: purified JAK3 enzyme, 10 μM ATP, biotinylated peptide substrate, 1 hour at room temperature. In kind it is biochemical. On the procedure:
JAK3 enzyme activity was assayed relative to enzyme phosphorylation using the method described herein.
Sf21 cells derived from the ovarian tissue of the fall armyworm Spodotera frugiperda were obtained from Pharmingen (San Diego, Calif.) and maintained at a temperature of about 26-28° C. in 1 l Bellco spinner flasks at 60-90 rpm. Cell viability was maintained at 95-100%, as determined by a tryptan blue dye exclusion test.
Sf21 cells were infected with a baculovirus expression vector for JAK3 (JH1 and JH2 domain). After 48 hours of infection, cells were harvested and lysed in Tris-saline (pH 7.6) containing 2% NP-40 and a combination of protease inhibitors (Aprotinin, Pepstatin A, Pefabloc, E-64, Leupeptin, and Benzamidine) on ice for 45 minutes.
The JAK3 enzyme was purified from the lysate using glutathione sepharose beads and the enzyme activity was assessed in Costar flat bottom EIA/RIA 96 well plates. The plates were coated with Neutravidin (110 μL) (Pierce Neutravidin Biotin-binding Protein 31000; 1 mg/mL 1:100) diluted in PBS for 1 hour at room temperature. The plates were washed with PBS-0.1% Tween (3 times) to remove unbound Neutravidin, then 1% BSA (150 NIL) in PBS was added to each well to block non-specific binding. The plates was incubated for 1 hour at room temperature and stored at −80° C. until use.
JAK3 enzyme solution (48 μL) in 1.25×TK buffer (62.5 mM HEPES pH 7.5, 12.5 mM MgCl2) containing DTT (42 mM) (Sigma, St. Louis, Mo.) was added to each well of a polypropylene 96 well plate.
A test compound (5 μL) diluted in DMSO (48 μL) and biotinylated peptide enzyme substrate (5 μg diluted in TK buffer containing 10 μM ATP) were added to each well using the double dispense feature of a multichannel electronic biohit. Control wells received DMSO vehicle (5 μL). The contents of the wells were mixed for approximately 8 seconds using a multitube vortexer and the reaction mixture was incubated for 1 hour at room temperature.
After incubation, an aliquot of reaction mixture (90 μL) was transferred into a washed Neutravidin coated plate. The plate was incubated for 15 minutes at room temperature and washed 3 times with PBS-T. PY99 anti-phosphotyrosine antibody (100 μL/well) (Santa Cruz #sc-7020HRP diluted 1:6000 in 1× antibody buffer) was added into each well and the plate was incubated for 40 minutes at room temperature. The antibody buffer contained 10% BSA, 100 mM Tris (pH 7.5), 1M NaCl and 1% Tween 20. The plate washed 3 times with PBS-T, then TMB (100 pLXSigma, St. Louis, Mo.) was added to the each well. The plate was incubated for another 40 mins at room temperature in the dark. The reaction was stopped by the addition of 1M H2SO4 (50 μL/well) and the optical density was read at 450/650 nm.
Test compounds were assayed in triplicate at 16 concentrations at half-log dilutions starting at 200 μM. A maximum and minimum signal for the assay was determined on each plate. The percent inhibition of a test compound was calculated according to the formula [formula]
For a series of test concentrations, the IC50 was derived by graphing percent inhibition against the log of the concentrations tested for a given compound. For those compounds without an IC50, the percent inhibition results are shown at a test concentration of 1 μM.
In general, IC50 refers to the point on the concentration scale where inhibition reaches its midpoint. Take `CN(C)CC(=O)OC1Cn2c3ccccc3c3c4c(c5c6ccccc6n(c5c32)CC1OC(=O)CN(C)C)C(=O)NC4` (centres unmarked) [Cpd 15, 12,13-{2,3-bis-[(dimethylaminomethyl)carbonyloxy]-butan-1,4-yl}-6,7,12,13-tetrahydro-5-oxo-5H-indolo[2,3-a]pyrrolo[3,4-c]carbazole]: the concentration for half-maximal inhibition (IC50) turned out to be 653 nM. The figure for `CC1(C)O[C@H]2Cn3c4ccccc4c4c5c(c6c7ccccc7n(c6c43)C[C@@H]2O1)C(=O)NC5` [Cpd 16, 12,13-[(4S,5S)-2,2-dimethyl-[1,3]dioxolo[4,5-b]butan-1,4-yl]-6,7,12,13-tetrahydro-5-oxo-5H-indolo[2,3-a]pyrrolo[3,4-c]carbazole] is 105 nM; for `O=C1NC(=O)c2c1c1c3ccccc3n3c1c1c2c2ccccc2n1CC(OC(=O)N1CCN(CCN2CCCC2=O)CC1)CC3` (centres unmarked) [Cpd 57, 12,13-[2-({4-[2-(2-oxo-pyrrolidin-1-yl)ethyl]piperazin-1-yl}carbonyloxy)-butan-1,4-yl]-12,13-dihydro-5,7-dioxo-6H-indolo[2,3-a]pyrrolo[3,4-c]carbazole] it is 41 nM; for `O=C(NCc1ccncc1)OC1CCn2c3ccccc3c3c4c(c5c6ccccc6n(c5c32)C1)C(=O)NC4=O` (centres unmarked) [Cpd 47, 12,13-{2-[(pyridin-4-yl-methyl)carbamoyloxy]-butan-1,4-yl}-12,13-dihydro-5,7-dioxo-6H-indolo[2,3-a]pyrrolo[3,4-c]carbazole] it is 30 nM. For `O=C1NCc2c1c1c3ccccc3n3c1c1c2c2ccccc2n1CC(O)(COC(=O)N1CCCNCC1)C3` (centres unmarked) [Cpd 146, 12,13-{2-hydroxy-2-[(hexahydro-1H-1,4-diazepin-1-yl)carbonyloxymethyl]-propan-1,3-yl}-6,7,12,13-tetrahydro-5-oxo-5H-indolo[2,3-a]pyrrolo[3,4-c]carbazole], the IC50 came to 26 nM.

Regarding `CN1CCC(Nc2ccc3c(c2)c2c4c(c5c6ccccc6n6c5c2n3CC(O)C(O)C6)CNC4=O)CC1` (centres unmarked) [Cpd 204, 3-[(1-methyl-piperidin-4-yl)amino]-12,13-(2,3-dihydroxy-butan-1,4-yl)-6,7,12,13-tetrahydro-5-oxo-5H-indolo[2,3-a]pyrrolo[3,4-c]carbazole], the IC50 worked out at 169 nM. Turning to `CCCNC(=O)OC1CCn2c3ccccc3c3c4c(c5c6ccccc6n(c5c32)C1)C(=O)NC4=O` (centres unmarked) [Cpd 38, 12,13-[2-(prop-1-ylcarbamoyloxy)-butan-1,4-yl]-12,13-dihydro-5,7-dioxo-6H-indolo[2,3-a]pyrrolo[3,4-c]carbazole], the IC50 is over 400 nM. The figure for `O=C1NCc2c1c1c3ccccc3n3c1c1c2c2ccccc2n1CC(O)(COC(=O)N1CCN(c2ccc(O)cc2)CC1)C3` (centres unmarked) [Cpd 137, 12,13-(2-hydroxy-2-{[4-(4-hydroxy-phenyl)piperazin-1-yl]carbonyloxymethyl}-propan-1,3-yl)-6,7,12,13-tetrahydro-5-oxo-5H-indolo[2,3-a]pyrrolo[3,4-c]carbazole] is 175 nM. The figure for `NS(=O)(=O)c1ccc(CCNC(=O)OC2Cn3c4ccccc4c4c5c(c6c7ccccc7n(c6c43)CC2O)C(=O)NC5=O)cc1` (centres unmarked) [Cpd 105, 12,13-(2-{[2-(4-sulfonylamino-phenyl)ethyl]carbamoyloxy}-3-hydroxy-butan-1,4-yl)-12,13-dihydro-5,7-dioxo-6H-indolo[2,3-a]pyrrolo[3,4-c]carbazole] is 15 nM; for `O=C(NCCCN1CCCC1=O)OCC1(O)Cn2c3ccccc3c3c4c(c5c6ccccc6n(c5c32)C1)C(=O)NC4` (centres unmarked) [Cpd 140, 12,13-(2-hydroxy-2-{[3-(2-oxo-pyrrolidin-1-yl)-prop-1-yl]carbamoyloxymethyl}-propan-1,3-yl)-6,7,12,13-tetrahydro-5-oxo-5H-indolo[2,3-a]pyrrolo[3,4-c]carbazole] it is 72 nM; for `NC1CCN(C(=O)OCC2(O)Cn3c4ccccc4c4c5c(c6c7ccccc7n(c6c43)C2)C(=O)NC5)CC1` (centres unmarked) [Cpd 176, 12,13-{2-hydroxy-2-[(4-amino-piperidin-1-yl)carbonyloxymethyl]-propan-1,3-yl}-6,7,12,13-tetrahydro-5-oxo-5H-indolo[2,3-a]pyrrolo[3,4-c]carbazole] it is 177 nM. Consider `COCCNC(=O)OC1CCn2c3ccccc3c3c4c(c5c6ccccc6n(c5c32)CC1)C(=O)NC4` (centres unmarked) [Cpd 179, 12,13-{3-[(2-methoxy-ethyl)carbamoyloxy]-pentan-1,5-yl}-6,7,12,13-tetrahydro-5-oxo-5H-indolo[2,3-a]pyrrolo[3,4-c]carbazole], for which the concentration for half-maximal inhibition (IC50) was 1060 nM. On to `O=C(O)/C=C/c1ccc2c(c1)c1c3c(c4c5ccccc5n5c4c1n2CC(CO)C5)CNC3=O` (centres unmarked) [Cpd 218, 3-[(2E)-2-carboxy-ethenyl]-12,13-(2-hydroxymethyl-propan-1,3-yl)-6,7,12,13-tetrahydro-5-oxo-5H-indolo[2,3-a]pyrrolo[3,4-c]carbazole], for which the half-inhibitory concentration (IC50) worked out at 686 nM.

Consider `CN1CCN(CCCNC(=O)OC2CCn3c4ccccc4c4c5c(c6c7ccccc7n(c6c43)C2)C(=O)NC5=O)CC1` (centres unmarked) [Cpd 43, 12,13-(2-{[3-(4-methyl-piperazin-1-yl)prop-1-yl]carbamoyloxy}-butan-1,4-yl)-12,13-dihydro-5,7-dioxo-6H-indolo[2,3-a]pyrrolo[3,4-c]carbazole], for which the IC50 turned out to be 112 nM. Then `COc1ccc(CCNC(=O)OC2CCn3c4ccccc4c4c5c(c6c7ccccc7n(c6c43)CC2)C(=O)NC5)cc1OC` (centres unmarked) [Cpd 183, 12,13-(3-{[2-(3,4-dimethoxy-phenyl)ethyl]carbamoyloxy}-pentan-1,5-yl)-6,7,12,13-tetrahydro-5-oxo-5H-indolo[2,3-a]pyrrolo[3,4-c]carbazole], with 1270 nM; and `O=C1NC(=O)c2c1c1c3ccccc3n3c1c1c2c2ccccc2n1CC(OC(=O)N1CCN(CCN2CCOCC2)CC1)C(O)C3` (centres unmarked) [Cpd 94], with 516 nM; and `O=C1NC(=O)c2c1c1c3ccccc3n3c1c1c2c2ccccc2n1CC(OC(=O)N1CCN(CCO)CC1)CC3` (centres unmarked) [Cpd 66, 12,13-(2-{[4-(2-hydroxy-ethyl)piperazin-1-yl]carbonyloxy}-butan-1,4-yl)-12,13-dihydro-5,7-dioxo-6H-indolo[2,3-a]pyrrolo[3,4-c]carbazole], with 40 nM.

Take `O=C(NC1CCN(Cc2ccccc2)CC1)OCC1(O)Cn2c3ccccc3c3c4c(c5c6ccccc6n(c5c32)C1)C(=O)NC4` (centres unmarked) [Cpd 145, 12,13-{2-hydroxy-2-[(1-benzyl-piperidin-4-yl)carbamoyloxymethyl]-propan-1,3-yl}-6,7,12,13-tetrahydro-5-oxo-5H-indolo[2,3-a]pyrrolo[3,4-c]carbazole]: the half-inhibitory concentration (IC50) was 31 nM. As to `O=C1NC(=O)c2c1c1c3ccccc3n3c1c1c2c2ccccc2n1CC(OC(=O)N1CCN(c2ccccc2)CC1)C(O)C3` (centres unmarked) [Cpd 102, 12,13-{2-[(4-phenyl-piperazin-1-yl)carbonyloxy]-3-hydroxy-butan-1,4-yl}-12,13-dihydro-5,7-dioxo-6H-indolo[2,3-a]pyrrolo[3,4-c]carbazole], the IC50 is 81 nM. Then `COCCNCc1ccc2c(c1)c1c3c(c4c5ccccc5n5c4c1n2CC(O)C(O)C5)CNC3=O` (centres unmarked) [Cpd 198, 3-[(2-methoxy-ethyl)aminomethyl]-12,13-(2,3-dihydroxy-butan-1,4-yl)-6,7,12,13-tetrahydro-5-oxo-5H-indolo[2,3-a]pyrrolo[3,4-c]carbazole], with 351 nM.

The values above are taken from US20070249590A1, “Substituted indolo[2,3-a]pyrrolo[3,4-c]carbazole compounds useful in treating kinase disorders” (priority 2005, published 2007).
